ChEMBL document CHEMBL1142464, “Synergistic effect of basic residues at positions 14-15 of nociceptin on binding affinity and receptor activation” (Bioorg Med Chem, 2008)

Legend:
Nociceptin receptor [1] = target: T1, Nociceptin receptor (Rattus norvegicus, UniProt P35370); assay: Displacement of [3H]nociceptin from rat ORL1 receptor expressed in african green monkey COS7 cells; format: cell-based, COS-7
Nociceptin receptor [2] = target: T1, Nociceptin receptor; assay: Activation of rat ORL1 receptor expressed in african green monkey COS7 cells by [35S]GTPgammaS binding assay; format: functional, cell-based, COS-7
[3] = Stability in presence of trypsin assessed as half life of compound hydrolysis; format: ADME
[4] = Stability in presence of rat brain trypsin assessed as half life of compound hydrolysis by HPLC; format: physicochemical
[5] = Stability in presence of rat brain trypsin assessed as half life of compound hydrolysis in presence of trypsin inhibitor bacitracin by HPLC; format: ADME, tissue-based; conditions: isolated protein
[6] = Stability in presence of rat brain trypsin assessed compound degradation after 60 mins by HPLC; format: ADME; conditions: read-out: Activity
[7] = target: Nociceptin receptor (Rattus norvegicus) (UniProt P35370); assay: Activation of rat ORL1 receptor expressed in african green monkey COS7 cells assessed as stimulation of [35S]GTPgammaS binding relative to nociceptin; format: functional, cell-based; conditions: COS-7
Chain of Nociceptin receptor (Rattus norvegicus) (P35370 whole entry): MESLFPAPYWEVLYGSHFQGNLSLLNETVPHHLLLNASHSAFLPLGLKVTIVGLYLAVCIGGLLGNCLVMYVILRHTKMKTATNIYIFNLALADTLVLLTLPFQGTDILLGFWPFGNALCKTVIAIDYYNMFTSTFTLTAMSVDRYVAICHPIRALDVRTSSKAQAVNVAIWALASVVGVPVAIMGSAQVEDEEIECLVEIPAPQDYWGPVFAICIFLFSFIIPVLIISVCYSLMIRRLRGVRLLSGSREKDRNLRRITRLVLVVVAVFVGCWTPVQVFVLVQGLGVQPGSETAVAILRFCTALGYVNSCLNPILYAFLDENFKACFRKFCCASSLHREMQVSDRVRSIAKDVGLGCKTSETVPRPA

T1 sequence (P35370 whole entry): as above

Compound	IC50 (Nociceptin receptor [1]) [nM]	EC50 (Nociceptin receptor [2]) [nM]	also measured
CC(C)C[C@H](NC(=O)[C@H](CCCCN)NC(=O)[C@H](CCCNC(=N)N)NC(=O)[C@H](C)NC(=O)[C@H](CO)NC(=O)[C@H](CCCCN)NC(=O)[C@H](CCCNC(=N)N)NC(=O)[C@H](C)NC(=O)CNC(=O)[C@@H](NC(=O)[C@H](Cc1ccccc1)NC(=O)CNC(=O)CNC(=O)[C@@H](N)Cc1ccccc1)[C@@H](C)O)C(=O)N[C@@H](CCCCN)C(=O)N[C@@H](CC(N)=O)C(=O)N[C@@H](CCC(N)=O)C(=O)O	0.41	5.8	half-life [3]: 20 min
C[C@H](NC(=O)CNC(=O)[C@@H](NC(=O)[C@H](Cc1ccccc1)NC(=O)CNC(=O)CNC(=O)[C@@H](N)Cc1ccccc1)[C@@H](C)O)C(=O)N[C@@H](CCCN=C(N)N)C(=O)N[C@@H](CCCCN)C(=O)N[C@@H](CO)C(=O)N[C@@H](C)C(=O)N[C@@H](CCCN=C(N)N)C(=O)N[C@@H](CCCCN)C(=O)N[C@@H](Cc1ccc(O)cc1)C(=O)N[C@@H](C)C(=O)N[C@@H](CC(N)=O)C(=O)N[C@@H](CCC(N)=O)C(=O)O	1.1	11	
C[C@H](NC(=O)CNC(=O)[C@@H](NC(=O)[C@H](Cc1ccccc1)NC(=O)CNC(=O)CNC(=O)[C@@H](N)Cc1ccccc1)[C@@H](C)O)C(=O)N[C@@H](CCCN=C(N)N)C(=O)N[C@@H](CCCCN)C(=O)N[C@@H](CO)C(=O)N[C@@H](C)C(=O)N[C@@H](CCCN=C(N)N)C(=O)N[C@@H](CCCCN)C(=O)N[C@@H](CCCN=C(N)N)C(=O)N[C@@H](CCCCN)C(=O)N[C@@H](CC(N)=O)C(=O)N[C@@H](CCC(N)=O)C(=O)O	0.21	1.1	half-life [4]: 600 min; Stability [5]: Stable; half-life [3]: 30 min; metabolised at 1 h [6]: < 10%
C[C@H](NC(=O)CNC(=O)[C@@H](NC(=O)[C@H](Cc1ccccc1)NC(=O)CNC(=O)CNC(=O)[C@@H](N)Cc1ccccc1)[C@@H](C)O)C(=O)N[C@@H](CCCNC(=N)N)C(=O)N[C@@H](CCCCN)C(=O)N[C@@H](CO)C(=O)N[C@@H](C)C(=O)N[C@@H](CCCNC(=N)N)C(=O)N[C@@H](CCCCN)C(=O)N[C@@H](CCCNC(=N)N)C(=O)N[C@@H](CCCCN)C(=O)N[C@@H](CC(N)=O)C(=O)N[C@@H](CCC(N)=O)C(=O)O			Activity [7]: 10%
CC(C)C[C@H](NC(=O)[C@H](CCCCN)NC(=O)[C@H](CCCN=C(N)N)NC(=O)[C@H](C)NC(=O)[C@H](CO)NC(=O)[C@H](CCCCN)NC(=O)[C@H](CCCN=C(N)N)NC(=O)[C@H](C)NC(=O)CNC(=O)[C@@H](NC(=O)[C@H](Cc1ccccc1)NC(=O)CNC(=O)CNC(=O)[C@@H](N)Cc1ccccc1)[C@@H](C)O)C(=O)N[C@@H](C)C(=O)N[C@@H](CC(N)=O)C(=O)N[C@@H](CCC(N)=O)C(=O)O [NOCICEPTIN]			half-life [4]: 480 min; Stability [5]: Stable; half-life [3]: 13 min; metabolised at 1 h [6]: 10%
H-FGGFTGARKRKRKLANQ-OH [listing 1 of 2 here]	0.94	86	
H-FGGFTGARKRKRKLANQ-OH [listing 2 of 2 here]			Activity [7]: > 90%
H-FGGFTGARKSARKAANQ-OH	1.5	11	
H-FGGFTGARKSARKFANQ-OH	1.1	9	
H-FGGFTGARKSARKKANQ-OH	0.41	4.1	
H-FGGFTGARKSARKKKNQ-OH	0.16	1.1	
H-FGGFTGARKSARKKRNQ-OH	0.21	1.3	
H-FGGFTGARKSARKLARK-OH	0.54	2.7	
H-FGGFTGARKSARKLFNQ-OH	1	12	
H-FGGFTGARKSARKLLNQ-OH	0.48	10	
H-FGGFTGARKSARKLRNQ-OH	0.31	3.2	
H-FGGFTGARKSARKLVNQ-OH	2.2	30	
H-FGGFTGARKSARKLWNQ-OH	2.1	50	
H-FGGFTGARKSARKLYNQ-OH	1	33	
H-FGGFTGARKSARKRANQ-OH	0.33	4	half-life [3]: 23 min
H-FGGFTGARKSARKRKRK-OH	0.42	2.3	
H-FGGFTGARKSARKRRNQ-OH	0.27	0.98	
H-FGGFTGARKSARKVANQ-OH	1.1	15	
H-FGGFTGARKSARKWANQ-OH	0.41	5.8	
H-FGGFTRKRKSARKLANQ-OH [listing 1 of 2 here]	13	870	
H-FGGFTRKRKSARKLANQ-OH [listing 2 of 2 here]			Activity [7]: 60%
